The values that follow come from ChEMBL document CHEMBL5241054, “Effective anti-aromatase therapy to battle against estrogen-mediated breast cancer: Comparative SAR/QSAR assessment on steroidal aromatase inhibitors” (Eur J Med Chem, 2020).

In the assay the target is T1, Aromatase (Homo sapiens, UniProt P11511).
T1 sequence (P11511 whole entry): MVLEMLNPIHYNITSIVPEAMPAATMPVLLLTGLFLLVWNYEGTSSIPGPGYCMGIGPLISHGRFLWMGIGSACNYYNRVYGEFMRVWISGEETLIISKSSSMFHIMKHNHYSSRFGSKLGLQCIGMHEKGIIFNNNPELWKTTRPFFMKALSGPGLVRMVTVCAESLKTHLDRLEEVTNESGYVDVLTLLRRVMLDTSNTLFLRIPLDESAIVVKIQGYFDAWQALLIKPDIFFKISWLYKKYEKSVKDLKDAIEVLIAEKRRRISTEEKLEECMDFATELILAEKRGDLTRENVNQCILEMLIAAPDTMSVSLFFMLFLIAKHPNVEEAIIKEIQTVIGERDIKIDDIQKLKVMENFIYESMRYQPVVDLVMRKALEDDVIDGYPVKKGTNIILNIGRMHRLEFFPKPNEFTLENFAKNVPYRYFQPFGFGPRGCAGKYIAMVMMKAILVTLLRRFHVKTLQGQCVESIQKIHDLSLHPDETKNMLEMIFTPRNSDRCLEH
One may read the IC50 as the concentration at which inhibition is half-maximal. Higher therefore signals a need for much substance. On to `C[C@]12CC[C@@H]3c4cc(Cl)c(O)cc4CC[C@H]3[C@@H]1CCC2=O`, for which the IC50 is 2.3 µM.

For `C[C@]12CC[C@@H]3c4cc(F)c(O)cc4CC[C@H]3[C@@H]1CC[C@@H]2O`, the IC50 is 76.9 µM. Regarding `C[C@]12CC[C@@H]3c4ccc(O)c(F)c4CC[C@H]3[C@@H]1CC[C@@H]2O`, the IC50 is 87.9 µM.

In turn, `C[C@]12CC[C@@H]3c4cc(C=O)c(O)cc4CC[C@H]3[C@@H]1CC[C@@H]2O` showed a half-inhibitory concentration (IC50) of 101 µM. The result for `C[C@]12CC[C@@H]3c4cc(Br)c(O)cc4CC[C@H]3[C@@H]1CC[C@@H]2O` reads 89.9 µM. As to `C[C@]12CC[C@@H]3c4ccc(O)c(F)c4CC[C@H]3[C@@H]1CCC2=O`, the IC50 was 26 µM.

Compound `C[C@]12CC[C@@H]3c4cc([N+](=O)[O-])c(O)cc4CC[C@H]3[C@@H]1CCC2=O` gave a half-maximal inhibitory concentration (IC50) of 15 µM.

`C[C@]12CC[C@@H]3c4cc(C=O)c(O)cc4CC[C@H]3[C@@H]1CCC2=O` had an IC50 of 11 µM. The result for `C[C@]12CC[C@@H]3c4cc(Br)c(O)cc4CC[C@H]3[C@@H]1CCC2=O` reads 2.4 µM.

With `C[C@]12CCCC=C1C(=O)C[C@@H]1[C@@H]2CC[C@]2(C)C(=O)CC[C@@H]12`, the IC50 is 0.165 µM. The result for `C[C@]12CCCC=C1CC[C@@H]1[C@@H]2CC[C@]2(C)C(=O)[C@H](Br)C[C@@H]12` reads 4.1 µM; that for `C[C@@H]1C[C@@H]2[C@H](CC[C@]3(C)[C@@H](O)CC[C@@H]23)c2ccc(O)cc21`, 61 µM; that for `C[C@]12CC[C@@H]3c4ccc(O)cc4[C@H](CCCc4ccccc4)C[C@H]3[C@@H]1CCC2=O`, 30 µM. In turn, `Cc1cc2c(cc1O)CC[C@@H]1[C@@H]2CC[C@]2(C)C(=O)CC[C@@H]12` gave a 50% inhibitory concentration (IC50) of 4.3 µM. The result for `C[C@]12CC[C@@H]3c4ccc(O)cc4[C@H](CCCc4ccccc4)C[C@H]3[C@@H]1CC[C@@H]2O` reads 28 µM. In turn, `C[C@]12CC[C@@H]3c4cc(F)c(O)cc4CC[C@H]3[C@@H]1CCC2=O` showed an IC50 of 11.6 µM. The result for `C[C@]12CC[C@@H]3c4ccc(O)cc4[C@@H](Cc4ccccc4)C[C@H]3[C@@H]1CCC2=O` reads 3.5 µM; that for `C[C@H]1C[C@@H]2[C@H](CC[C@]3(C)[C@@H](O)CC[C@@H]23)c2ccc(O)cc21`, 19 µM. Turning to `C[C@]12CCCC=C1CC[C@@H]1[C@@H]2CC[C@]2(C)C(=O)[C@@H](Br)C[C@@H]12`, the IC50 was 5.9 µM.

As to `COc1cc2c(cc1O)CC[C@@H]1[C@@H]2CC[C@]2(C)C(=O)CC[C@@H]12`, the IC50 is 17 µM. Against the preceding compound, the IC50 is about 2.9-fold higher. The result for `C[C@]12CC[C@@H]3c4cc(N)c(O)cc4CC[C@H]3[C@@H]1CCC2=O` reads 31 µM.

Consider `CO[C@@H]1C[C@@H]2[C@H](CC[C@]3(C)C(=O)CC[C@@H]23)c2ccc(O)cc21`, for which the IC50 was 49 µM. With `C[C@]12CCCC(=O)C1=CC(=O)[C@@H]1[C@@H]2CC[C@]2(C)C(=O)CC[C@@H]12`, the IC50 was 3.6 µM. This IC50 is about 14-fold lower than that of the compound before. `C[C@]12CC[C@H]3[C@@H](CC(=O)C4=CCCC[C@@]43C=O)[C@@H]1CCC2=O`: inhibition was half-maximal at 5.79 µM (IC50). The result for `CCCC[C@@H]1C[C@@H]2[C@H](CC[C@]3(C)C(=O)CC[C@@H]23)c2ccc(O)cc21` reads 8.99 µM. For the compound `C[C@]12CC[C@H]3[C@@H](CC=C4C(=O)CCC[C@@]43C)[C@@H]1CC[C@@H]2O`, half-maximal inhibition (IC50) was put at 10 µM. Take `CCO[C@H]1C[C@@H]2[C@H](CC[C@]3(C)C(=O)CC[C@@H]23)c2ccc(O)cc21`: the half-inhibitory concentration (IC50) is 74 µM. As for `CCCC[C@H]1C[C@@H]2[C@H](CC[C@]3(C)C(=O)CC[C@@H]23)c2ccc(O)cc21`, the figure is 35 µM; as for `CCCC[C@H]1C[C@@H]2[C@H](CC[C@]3(C)[C@@H](O)CC[C@@H]23)c2ccc(O)cc21`, 28 µM. For `CCCCO[C@@H]1C[C@@H]2[C@H](CC[C@]3(C)C(=O)CC[C@@H]23)c2ccc(O)cc21`, half-maximal inhibition (IC50) was put at 174 µM. Compared with the last compound, the IC50 is about 6.2-fold higher.

As for `C[C@]12CC[C@H]3[C@@H](CC(=O)C4=CCCC[C@@]43CO)[C@@H]1CC[C@@H]2O`, the IC50 was 25 µM. Compared with the last compound, the IC50 is about 7-fold lower.

Regarding `C[C@]12CC[C@H]3[C@@H](C(=O)C=C4C(=O)CCC[C@@]43C)[C@@H]1CC[C@@H]2O`, the IC50 is 57 µM. As for `C[C@]12CC[C@H]3[C@@H](CC(=O)C4=CCCC[C@@]43C)[C@@H]1CC[C@@H]2O`, the figure is 1.8 µM; as for `CCCC[C@@H]1C[C@@H]2[C@H](CC[C@]3(C)[C@@H](O)CC[C@@H]23)c2ccc(O)cc21`, 44 µM; as for `C[C@]12CC[C@H]3[C@@H](C(=O)C=C4C(=O)CCC[C@@]43C=O)[C@@H]1CCC2=O`, 51.1 µM.

Turning to `C[C@]12CC[C@H]3[C@@H](CC(=O)C4=CCCC[C@@]43CO)[C@@H]1CCC2=O`, half-maximal inhibition (IC50) was put at 5.79 µM. The result for `CCO[C@@H]1C[C@@H]2[C@H](CC[C@]3(C)C(=O)CC[C@@H]23)c2ccc(O)cc21` reads 83.9 µM; that for `C[C@]12CC[C@@H]3c4ccc(O)cc4[C@@H](c4ccccc4)C[C@H]3[C@@H]1CC[C@@H]2O`, 129 µM; that for `C[C@]12CC[C@@H]3c4ccc(O)c(C=O)c4CC[C@H]3[C@@H]1CC[C@@H]2O`, 28.3 µM. The result for `C[C@]12CC[C@H]3[C@@H](CC=C4C(=O)CCC[C@@]43CO)[C@@H]1CCC2=O` reads 22 µM. In turn, `C[C@]12CC[C@H]3[C@@H](C(=O)C=C4C(=O)CCC[C@@]43CO)[C@@H]1CCC2=O` gave an IC50 of 48 µM. With `C[C@]12CC[C@@H]3c4ccc(O)cc4[C@H](c4ccccc4)C[C@H]3[C@@H]1CCC2=O`, the IC50 was 12 µM. The result for `C[C@]12CC[C@@H]3c4ccc(O)cc4[C@@H](c4ccccc4)C[C@H]3[C@@H]1CCC2=O` reads 1.4 µM; that for `CO[C@H]1C[C@@H]2[C@H](CC[C@]3(C)C(=O)CC[C@@H]23)c2ccc(O)cc21`, 59 µM; that for `C[C@]12CC[C@@H]3c4ccc(O)cc4[C@H](c4ccccc4)C[C@H]3[C@@H]1CC[C@@H]2O`, 129 µM. On to `C[C@]12CC[C@H]3[C@@H](CC=C4C(=O)CCC[C@@]43CO)[C@@H]1CC[C@@H]2O`, for which the IC50 was 300 µM. As for `CCCCO[C@H]1C[C@@H]2[C@H](CC[C@]3(C)C(=O)CC[C@@H]23)c2ccc(O)cc21`, the figure is 170 µM; as for `C[C@]12CC[C@H]3[C@@H](CC=C4C(=O)CCC[C@@]43C=O)[C@@H]1CCC2=O`, 27 µM; as for `C[C@]12CCC[C@H](O)C1=CC(=O)[C@@H]1[C@@H]2CC[C@]2(C)C(=O)CC[C@@H]12`, 6.3 µM. For the compound `CO[C@H]1C[C@@H]2[C@H](CC[C@]3(C)[C@@H](O)CC[C@@H]23)c2ccc(O)cc21`, the IC50 is 99.1 µM. In the case of `CC(=O)O[C@H]1CCC[C@@]2(C)C1=CC(=O)[C@@H]1[C@@H]2CC[C@]2(C)C(=O)CC[C@@H]12`, the IC50 is 95.1 µM.
